Read-outs that look alike come from different tables or passages of the source. Residues, ends and D or L forms follow the SMILES beside them. *: point of attachment. X1 = Cc1nn(CCN(CCN)CCCC(=O)*)c(C)c1CC(=O)O
Tests used:
[1] = Biodistribution of technetium-labelled peptides; format: in vivo, CD1 mice; conditions: iv, total radioactivity
Procedure, shortened: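 CD1 mice received technetium-labelled peptide (8.5×10^−5 M final labelling concentration, in PBS) by tail-vein iv injection; in a repeat study dose was raised one hundred fold. Organs were dissected, washed, weighed and counted at 5 and 60 min, or 2 and 60 min in the repeat, as % injected activity or per gram tissue.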

[2] = Partition coefficient (log Po/w) of radiopeptides; format: physicochemical
Description: Table 7 lists each peptide's name, isoelectric point (PI), charge (number of positive residues), calculated mass (in Da), and ion found; as well as the name, calculated mass, and found ion for the corresponding conjugate; and also retention times in HPLC and the partition coefficient (log Po/w). These values allowed the determination of the hydrophilic nature of peptides, where pepH1 and pepH4 were identified as the most hydrophilic peptides.

Which tissue uptake at 2 min ([1]; CD1, blood, 140 ug/mouse, 140 μg/mouse, read-out: injected activity in Blood) does the source give for `CC[C@H](C)[C@H](NC(=O)CNC(=O)[C@H](C)NC(=O)CCCN(CCN)CCn1nc(C)c(CC(=O)O)c1C)C(=O)N[C@@H](CC(C)C)C(=O)N[C@@H](CCCCN)C(=O)N[C@@H](CCCNC(=N)N)C(=O)N[C@@H](Cc1c[nH]c2ccccc12)C(=O)O` [^99mTc(CO)3-Pz^1-pepH3, metal not drawn] (X1-AGILKRW-OH; C-terminus assumed) here?
Its tissue uptake at 2 min is 8.6 ± 0.9 %ID/g.

What about the tissue uptake at 1 h ([1]; CD1, blood, 140 ug/mouse, 140 μg/mouse, 1 hour, read-out: injected activity in Blood) of the same molecule?
The tissue uptake at 1 h was 0.43 ± 0.04 %ID/g.

What about the tissue uptake at 2 min ([1]; CD1, bone, 140 ug/mouse, 140 μg/mouse, read-out: injected activity in Bone) of the same molecule?
The tissue uptake at 2 min was 1.89 ± 0.04 %ID/g.

What about the tissue uptake at 1 h ([1]; CD1, bone, 140 ug/mouse, 140 μg/mouse, 1 hour, read-out: injected activity in Bone) of the same molecule?
The tissue uptake at 1 h was 0.19 ± 0.01 %ID/g.

And the tissue uptake at 2 min ([1]; CD1, brain, 140 ug/mouse, 140 μg/mouse, read-out: injected activity in Brain)?
Its tissue uptake at 2 min is 0.31 ± 0.07 %ID/g.

What about the tissue uptake at 1 h ([1]; CD1, brain, 140 ug/mouse, 140 μg/mouse, 1 hour, read-out: injected activity in Brain) of the same molecule?
The tissue uptake at 1 h was 0.03 ± 0.01 %ID/g.

What about the tissue uptake at 2 min ([1]; CD1, heart, 140 ug/mouse, 140 μg/mouse, read-out: injected activity in Heart) of the same molecule?
Its tissue uptake at 2 min is 2.2 ± 0.3 %ID/g.

What about the tissue uptake at 1 h ([1]; CD1, heart, 140 ug/mouse, 140 μg/mouse, 1 hour, read-out: injected activity in Heart) of the same molecule?
The tissue uptake at 1 h was 0.14 ± 0.01 %ID/g.

And the dose excreted at 1 h ([1]; CD1, in vivo, 140 ug/mouse, 140 μg/mouse, 1 hour, read-out: Excretion)?
Its dose excreted at 1 h is 36 ± 11.2%.

What about the tissue uptake at 2 min ([1]; CD1, intestine, 140 ug/mouse, 140 μg/mouse, read-out: injected activity in Intestine) of the same molecule?
The tissue uptake at 2 min was 1.4 ± 0.2 %ID/g.

And the tissue uptake at 1 h ([1]; CD1, intestine, 140 ug/mouse, 140 μg/mouse, 1 hour, read-out: injected activity in Intestine)?
The tissue uptake at 1 h was 23 ± 7.9 %ID/g.

What about the tissue uptake at 2 min ([1]; CD1, kidney, 140 ug/mouse, 140 μg/mouse, read-out: injected activity in Kidney) of the same molecule?
Its tissue uptake at 2 min is 23.1 ± 3.4 %ID/g.

What about the tissue uptake at 1 h ([1]; CD1, kidney, 140 ug/mouse, 140 μg/mouse, 1 hour, read-out: injected activity in Kidney) of the same molecule?
The tissue uptake at 1 h was 3.5 ± 0.7 %ID/g.

And the tissue uptake at 2 min ([1]; CD1, liver, 140 ug/mouse, 140 μg/mouse, read-out: injected activity in Liver)?
The tissue uptake at 2 min was 18.8 ± 6.1 %ID/g.

What about the tissue uptake at 1 h ([1]; CD1, liver, 140 ug/mouse, 140 μg/mouse, 1 hour, read-out: injected activity in Liver) of the same molecule?
Its tissue uptake at 1 h is 2.3 ± 0.2 %ID/g.

And the tissue uptake at 2 min ([1]; CD1, lung, 140 ug/mouse, 140 μg/mouse, read-out: injected activity in Lung)?
Its tissue uptake at 2 min is 4.48 ± 0.01 %ID/g.

What about the tissue uptake at 1 h ([1]; CD1, lung, 140 ug/mouse, 140 μg/mouse, 1 hour, read-out: injected activity in Lung) of the same molecule?
Its tissue uptake at 1 h is 0.31 ± 0.03 %ID/g.

What about the tissue uptake at 2 min ([1]; CD1, muscle, 140 ug/mouse, 140 μg/mouse, read-out: injected activity in Muscle) of the same molecule?
Its tissue uptake at 2 min is 1.4 ± 0.2 %ID/g.

And the tissue uptake at 1 h ([1]; CD1, muscle, 140 ug/mouse, 140 μg/mouse, 1 hour, read-out: injected activity in Muscle)?
Its tissue uptake at 1 h is 0.2 ± 0.1 %ID/g.

And the tissue uptake at 2 min ([1]; CD1, spleen, 140 ug/mouse, 140 μg/mouse, read-out: injected activity in Spleen)?
The tissue uptake at 2 min was 1.6 ± 0.4 %ID/g.

And the tissue uptake at 1 h ([1]; CD1, spleen, 140 ug/mouse, 140 μg/mouse, 1 hour, read-out: injected activity in Spleen)?
Its tissue uptake at 1 h is 0.81 ± 0.01 %ID/g.

And the tissue uptake at 2 min ([1]; CD1, stomach, 140 ug/mouse, 140 μg/mouse, read-out: injected activity in Stomach)?
The tissue uptake at 2 min was 1.1 ± 0.2 %ID/g.

What about the tissue uptake at 1 h ([1]; CD1, stomach, 140 ug/mouse, 140 μg/mouse, 1 hour, read-out: injected activity in Stomach) of the same molecule?
Its tissue uptake at 1 h is 5.2 ± 0.7 %ID/g.

And the tissue uptake at 5 min ([1]; mouse, blood, 10 ug, CD1 mice, 5 min, 10 μg, read-out: injected activity in Blood)?
The tissue uptake at 5 min was 4.7 ± 0.6 %ID/g.

And the tissue uptake at 1 h ([1]; mouse, blood, 10 ug, CD1 mice, 1 hour, 10 μg, read-out: injected activity in Blood)?
The tissue uptake at 1 h was 1.2 ± 0.4 %ID/g.

And the tissue uptake at 5 min ([1]; mouse, bone, 10 ug, CD1 mice, 5 min, 10 μg, read-out: injected activity in Bone)?
The tissue uptake at 5 min was 1.2 ± 0.1 %ID/g.

What about the tissue uptake at 1 h ([1]; mouse, bone, 10 ug, CD1 mice, 1 hour, 10 μg, read-out: injected activity in Bone) of the same molecule?
The tissue uptake at 1 h was 0.26 ± 0.05 %ID/g.

And the tissue uptake at 5 min ([1]; mouse, brain, 10 ug, CD1 mice, 5 min, 10 μg, read-out: injected activity in Brain)?
The tissue uptake at 5 min was 0.15 ± 0.02 %ID/g.

And the tissue uptake at 1 h ([1]; mouse, brain, 10 ug, CD1 mice, 1 hour, 10 μg, read-out: injected activity in Brain)?
Its tissue uptake at 1 h is 0.04 ± 0.01 %ID/g.

What about the tissue uptake at 5 min ([1]; mouse, heart, 10 ug, CD1 mice, 5 min, 10 μg, read-out: injected activity in Heart) of the same molecule?
Its tissue uptake at 5 min is 1.5 ± 0.5 %ID/g.

And the tissue uptake at 1 h ([1]; mouse, heart, 10 ug, CD1 mice, 1 hour, 10 μg, read-out: injected activity in Heart)?
The tissue uptake at 1 h was 0.35 ± 0.01 %ID/g.

What about the percent of injected dose excreted at 5 min ([1]; mouse, in vivo, 10 ug, CD1 mice, 5 min, 10 μg, read-out: Excretion) of the same molecule?
The percent of injected dose excreted at 5 min was 19.6 ± 0.3 %ID.

And the percent of injected dose excreted at 1 h ([1]; mouse, in vivo, 10 ug, CD1 mice, 1 hour, 10 μg, read-out: Excretion)?
The percent of injected dose excreted at 1 h was 10.5 ± 8.6 %ID.

What about the tissue uptake at 5 min ([1]; mouse, intestine, 10 ug, CD1 mice, 5 min, 10 μg, read-out: injected activity in Intestine) of the same molecule?
Its tissue uptake at 5 min is 3 ± 0.3 %ID/g.

What about the tissue uptake at 1 h ([1]; mouse, intestine, 10 ug, CD1 mice, 1 hour, 10 μg, read-out: injected activity in Intestine) of the same molecule?
Its tissue uptake at 1 h is 7.4 ± 0.4 %ID/g.

And the tissue uptake at 5 min ([1]; mouse, kidney, 10 ug, CD1 mice, 5 min, 10 μg, read-out: injected activity in Kidney)?
Its tissue uptake at 5 min is 11.9 ± 3.8 %ID/g.

What about the tissue uptake at 1 h ([1]; mouse, kidney, 10 ug, CD1 mice, 1 hour, 10 μg, read-out: injected activity in Kidney) of the same molecule?
Its tissue uptake at 1 h is 0.4 ± 2 %ID/g.

What about the tissue uptake at 5 min ([1]; mouse, liver, 10 ug, CD1 mice, 5 min, 10 μg, read-out: injected activity in Liver) of the same molecule?
Its tissue uptake at 5 min is 7.6 ± 0.1 %ID/g.

What about the tissue uptake at 1 h ([1]; mouse, liver, 10 ug, CD1 mice, 1 hour, 10 μg, read-out: injected activity in Liver) of the same molecule?
Its tissue uptake at 1 h is 2.3 ± 0.2 %ID/g.

What about the tissue uptake at 5 min ([1]; mouse, lung, 10 ug, CD1 mice, 5 min, 10 μg, read-out: injected activity in Lung) of the same molecule?
Its tissue uptake at 5 min is 3.7 ± 0.2 %ID/g.

And the tissue uptake at 1 h ([1]; mouse, lung, 10 ug, CD1 mice, 1 hour, 10 μg, read-out: injected activity in Lung)?
The tissue uptake at 1 h was 1 ± 0.2 %ID/g.

And the tissue uptake at 5 min ([1]; mouse, muscle, 10 ug, CD1 mice, 5 min, 10 μg, read-out: injected activity in Muscle)?
Its tissue uptake at 5 min is 1 ± 0.2 %ID/g.

And the tissue uptake at 1 h ([1]; mouse, muscle, 10 ug, CD1 mice, 1 hour, 10 μg, read-out: injected activity in Muscle)?
Its tissue uptake at 1 h is 0.3 ± 0.1 %ID/g.

What about the tissue uptake at 5 min ([1]; mouse, pancreas, 10 ug, CD1 mice, 5 min, 10 μg, read-out: injected activity in Pancreas) of the same molecule?
Its tissue uptake at 5 min is 1.1 ± 0.1 %ID/g.

And the tissue uptake at 1 h ([1]; mouse, pancreas, 10 ug, CD1 mice, 1 hour, 10 μg, read-out: injected activity in Pancreas)?
Its tissue uptake at 1 h is 0.5 ± 0.2 %ID/g.

What about the tissue uptake at 5 min ([1]; mouse, spleen, 10 ug, CD1 mice, 5 min, 10 μg, read-out: injected activity in Spleen) of the same molecule?
Its tissue uptake at 5 min is 1.5 ± 0.2 %ID/g.

And the tissue uptake at 1 h ([1]; mouse, spleen, 10 ug, CD1 mice, 1 hour, 10 μg, read-out: injected activity in Spleen)?
Its tissue uptake at 1 h is 0.81 ± 0.01 %ID/g.

What about the tissue uptake at 5 min ([1]; mouse, stomach, 10 ug, CD1 mice, 5 min, 10 μg, read-out: injected activity in Stomach) of the same molecule?
The tissue uptake at 5 min was 0.17 ± 0.02 %ID/g.

What about the tissue uptake at 1 h ([1]; mouse, stomach, 10 ug, CD1 mice, 1 hour, 10 μg, read-out: injected activity in Stomach) of the same molecule?
The tissue uptake at 1 h was 0.4 ± 0.2 %ID/g.

And the “log Po/w of radiopeptides” value [2]?
The value was 0.11 ± 0.06.

— US10654917B2, “Antibody molecules and peptide delivery systems for use in alzheimer's disease and related disorders” (TECHNOPHAGE, INVESTIGAÇĀO E DESENVOLVIMENTO EM …, priority 2015, dated 2020)
